From US20100310679A1, “NOVEL COMPOSITIONS FOR CONTROL OF MALICIOUS MARINE ANEMONES” (priority 2008, published 2010)

test system: marine pest anemone; experiment: Empirically determined effective concentration ranges of ingredients in agar-anemonescide-desensitizer preparation; format: in vivo; conditions: concentration of the ingredient in the agar-anemonescide-desensitizer preparation
Text: Table 1 also lists the empirically determined effective concentration ranges of the various ingredients. While it is believed that less than the minimal effective concentrations might impair the effectiveness of that ingredient, and more than effective concentration will not further improve the effectiveness, it is to be understood that the table is provided by way of enablement and is not to be construed as limiting the invention to the preferred ranges.

| Structure (SMILES) | Empirically Determined Effective Concentration range (Min-Max) |
| --- | --- |
| O.O.[Ca+2].[Cl-].[Cl-] [CaCl2•2H2O] | 10-500 g/l |
| O=S(=O)([O-])[O-].[Ca+2] [CaSO4, calcium sulphate] | 5 to 150 g/L |
| O=S(=O)([O-])[O-].[Mg+2] [MgSO4, magnesium sulphate] | 0.5 to 10 g/L |
| [Na+].[OH-] [NaOH, sodium hydroxide] | 5 to 120 g/L |

test system: sea anemone Anthopleura midorii; experiment: not given; conditions: added to artificial food; cited from earlier work

| Structure (SMILES) | effect on feeding motions |
| --- | --- |
| N[C@@H](CS)C(=O)O [Cysteine] | induced food ingestion |
| C[C@H](N)C(=O)O [alanine] | stimulated the retention of artificial food by tentacles |
| NC(=O)C[C@H](N)C(=O)O [asparagine] | stimulated the retention of artificial food by tentacles |
| NCC(=O)O [glycine] | stimulated the retention of artificial food by tentacles |
| N[C@@H](Cc1c[nH]cn1)C(=O)O [histidine] | stimulated the retention of artificial food by tentacles |
| O=C(O)[C@@H]1CCCN1 [proline] | evoked mouth opening |
| N[C@@H](CCC(=O)N[C@@H](CS)C(=O)NCC(=O)O)C(=O)O [reduced glutathione (GSH), reduced glutathione] | induced food ingestion |
